Reference: patent US4524067A, “Soybean saponins, and a method of isolating the same” (Osaka Chemical Laboratory Co., Ltd., priority 1979, dated 1985)
Like-named read-outs stand apart in the source and are kept apart here.

Legend:
[1] = system: lipid peroxides in the heart; test: Inhibition of formation of lipid peroxides in the heart of Adreamycin-treated mice; type: in vivo, mice (COF male); conditions: for Lipid peroxide, heart / Rate of inhibition, heart: n = 5
Method: (§1) It is widely known that Adreamycin, which is an oncostatic, inhibits the synthesis of DNA by combining therewith, and the metabolism of lipids in the heart to cause deposition of lipid peroxides therein, leading to miocardosis.
(§2) (1) The tests were conducted with groups of five COF male mice, five week old, weighing 20 to 25 g each. 15 mg/kg of Adreamycin (product of Kyowa Hakko Kogyo, Japan) were intraperitoneally injected into each mouse (0.15 ml of the medicine per 10 g of mouse weight).
(§3) The administration of each of the medicines to be tested as shown in Table 1 below was started one day prior to the administration of Adreamycin, and continued intraperitoneally for five days at a rate of 0.10 ml per 10 g of mouse weight. All the medicines tested were suspended or emulsified (only vitamin E) in a 0.9% physiological solution of sodium chloride, or a 0.9% physiological solution of sodium chloride containing 1% of Tween 80 immediately before they were applied. All the medicines tested were administered at noon every day, and Adreamycin was given three hours after the administration of the medicines tested. The saponin component of this invention was given in the amount of 1,000 mg/kg, 500 mg/kg, 125 mg/kg, 50 mg/kg, 25 mg/kg and 12.5 mg/kg, vitamin E in the amount of 1,000 mg/kg and 250 mg/kg, and vitamin B2 in the amount of 1,000 mg/kg, while a 0.9% physiological solution of sodium chloride was given to the mice of the control group.
(§4) (2) On the sixth day, each mouse was killed by dislocation of the cervical vertebrae, and its heart and liver were picked out immediately. After their wet weights were measured, a 2% homogenate was prepared with a 0.9% physiological solution of sodium chloride by a Potter homogenizer made of Teflon while it was being cooled with ice.
(§5) 0.5 ml of a 3% aqueous solution of sodium lauryl sulfate was added into 0.2 ml of the aforementioned 2% homogenate, and they were mixed together by shaking for 30 seconds. Then, 1.5 ml of an acetic acid buffer solution having a pH value of 3.6, and 1.5 ml of a 0.8% solution of thiobarbituric acid were added thereinto, followed by addition of distilled water to make a total of 4.0 ml. After the resulting solution was shaked vigorously for 30 seconds, it was heated at 95° C. for an hour in an oil bath, and cooled with flowing water for five minutes. Then, 1.0 ml of 0.2N hydrochloric acid and 5.0 ml of a mixed solution of n-butanol and pyridine (15:1) were added into the solution, and after it was shaked violently, it was subjected to centrifugal separation at 3,000 rpm for 15 minutes, whereby the top n-butanol layer was separated, and its fluorescence spectrum was measured by a spectrophotofluorometer (Ex 515 nm and Em 553 nm). […] The quantity of lipid peroxides was obtained by applying the working curve to the values as actually measured.
(§6) The rate of inhibition of the formation of lipid peroxides was obtained in accordance with the following equation to compare the effects of the various medicines tested, and the quantities thereof employed, as shown in Table 1: [formula] wherein A: the concentration of lipid peroxides in the group of mice to which no Adreamycin had been given;
(§7) D: the concentration of lipid peroxides in the groups of mice to which both Adreamycin and the medicines to be tested had been administered.
(§8) Note: The rate of inhibition by each dosage was calculated by comparison with the values shown for the respective test numbers in the control group (i.e., applying the values of C shown for the control group).

[2] = pH / acidity of aqueous solution; type: physicochemical
[3] = Solubility; type: physicochemical
[4] = Antioxidizing action for salad oil (lipid peroxide, Yagi's method); conditions: 180° C. for 40 min.
Method: Salad oil: Product of Nisshin Seiyu Co., Ltd., Japan.
Test oils were prepared by using various kinds of saponin components which were added into the salad oil in the amounts of 1 mg/ml and 0.1 mg/ml. These test oils and a control oil containing no saponin component were heated at 180° C. for 40 minutes, while oxygen was being blown thereinto. After they were cooled, the quantities of the lipid peroxides formed in the oils were determined by the Yagi's method [K. Yagi, Biochemie.

[5] = system: lipid peroxides in the liver; test: Inhibition of formation of lipid peroxides in the liver of Adreamycin-treated mice; type: in vivo, mice (COF male); conditions: n = 5
Method: as §1, §2, §3, §4, §5, §6, §7, §8

[6] = system: formation of lipid peroxides; conditions: prior art statement, cited from earlier work
[7] = prior art statement; cited from earlier work
[8] = prior art statement; cited from earlier work; remark: listed apart in the source

## COc1cccc2c1C(=O)c1c(O)c3c(c(O)c1C2=O)C[C@@](O)(C(=O)CO)C[C@@H]3O[C@H]1C[C@H](N)[C@H](O)[C@H](C)O1 [Adreamycin]
[1]; 15 mg/kg i.p., heart and liver, mice
  Effect of Adreamycin on lipid peroxides: increases the lipid peroxides in the heart and liver

## CC1(C)C[C@H]2C3=CC[C@@H]4[C@@]5(C)CC[C@H](O[C@@H]6O[C@H](C(=O)O)[C@@H](O)[C@H](O)[C@H]6O[C@@H]6O[C@H](CO)[C@H](O)[C@H](O)[C@H]6O)[C@](C)(CO)[C@@H]5CC[C@@]4(C)[C@]3(C)CC[C@@]2(C)[C@H](O[C@@H]2OC[C@H](O)[C@H](O[C@@H]3O[C@H](CO)[C@@H](O)[C@H](O)[C@H]3O)[C@H]2O)[C@@H]1O [Soyasaponin A2, 3-O-[β-D-galactopyranosyl-(1→2)-β-D-glucuronopyranosyl]-22-O-[β-D-glucopyranosyl (1→3)-α-L-arabinopyranosyl]-soyasapogenol A]
[2]; 5 mg in 1 ml of water
  pH value of aqueous solution: 6
[3]
  Solubility: easily soluble in methanol, soluble in water, pyridine, dimethyl sulfoxide and ethanol, and insoluble in acetone, chloroform and ether
[4]; 0.1 mg/ml
  Quantity of lipid peroxide: 60.0 nmol/mL
  Rate of inhibition of increase in lipid peroxide: 2.5%
[4]; 1 mg/ml
  Quantity of lipid peroxide: 38.8 nmol/mL
  Rate of inhibition of increase in lipid peroxide: 43.4%

## CC1(C)C[C@H]2C3=CC[C@@H]4[C@@]5(C)CC[C@H](O[C@@H]6O[C@H](C(=O)O)[C@@H](O)[C@H](O)[C@H]6O[C@@H]6O[C@H](CO)[C@H](O)[C@H](O)[C@H]6O[C@@H]6O[C@H](CO)[C@@H](O)[C@H](O)[C@H]6O)[C@](C)(CO)[C@@H]5CC[C@@]4(C)[C@]3(C)CC[C@@]2(C)[C@H](O[C@@H]2OC[C@H](O)[C@H](O[C@@H]3O[C@H](CO)[C@@H](O)[C@H](O)[C@H]3O)[C@H]2O)[C@@H]1O [Soyasaponin A1, 3-O-[β-D-glucopyranosyl(1→2)-β-D-galactopyranosyl-(1→2)-β-D-glucuronopyranosyl]-22-O-[β-D-glucopyranosyl(1→3)-α-L-arabinopyranosyl]-soyasapogenol A]
[2]; 10 mg in 1 ml of water
  pH value of aqueous solution: 6
[3]
  Solubility: easily soluble in methanol, soluble in water, pyridine, dimethyl sulfoxide and ethanol, and insoluble in acetone, chloroform and ether
[4]; 0.1 mg/ml
  Quantity of lipid peroxide: 22.5 nmol/mL
  Rate of inhibition of increase in lipid peroxide: 74.8%
[4]; 1 mg/ml
  Quantity of lipid peroxide: 13.8 nmol/mL
  Rate of inhibition of increase in lipid peroxide: 91.5%

## CC1(C)C[C@@H](O)[C@]2(C)CC[C@]3(C)C(=CC[C@@H]4[C@@]5(C)CC[C@H](O[C@@H]6O[C@H](C(=O)O)[C@@H](O)[C@H](O)[C@H]6O[C@@H]6O[C@H](CO)[C@H](O)[C@H](O)[C@H]6O)[C@](C)(CO)[C@@H]5CC[C@]43C)[C@@H]2C1 [Soyasaponin III, 3-O-[β-D-galactopyranosyl(1→2)-β-D-glucuronopyranosyl]-soyasapogenol B]
[4]; 0.1 mg/ml
  Quantity of lipid peroxide: 45.6 nmol/mL
  Rate of inhibition of increase in lipid peroxide: 30.3%
[4]; 1 mg/ml
  Quantity of lipid peroxide: 8.8 nmol/mL
  Rate of inhibition of increase in lipid peroxide: 101.2%

## C[C@@H]1O[C@@H](O[C@H]2[C@H](O[C@H]3[C@H](O[C@H]4CC[C@@]5(C)[C@@H](CC[C@]6(C)[C@@H]5CC=C5[C@@H]7CC(C)(C)C[C@@H](O)[C@]7(C)CC[C@]56C)[C@@]4(C)CO)O[C@H](C(=O)O)[C@@H](O)[C@@H]3O)O[C@H](CO)[C@H](O)[C@@H]2O)[C@H](O)[C@H](O)[C@H]1O [Soyasaponin I, 3-O-[α-L-rhamnopyranosyl(1→2)-β-D-galactopyranosyl(1→2)-β-D-glucuronopyranosyl]-soyasapogenol B]
[4]; 0.1 mg/ml
  Quantity of lipid peroxide: 45.6 nmol/mL
  Rate of inhibition of increase in lipid peroxide: 30.3%
[4]; 1 mg/ml
  Quantity of lipid peroxide: 10.6 nmol/mL
  Rate of inhibition of increase in lipid peroxide: 97.7%

## Cc1cc2nc3c(=O)[nH]c(=O)nc-3n(C[C@H](O)[C@H](O)[C@H](O)CO)c2cc1C [Vitamin B2, riboflavin]
[5]; 1000 mg/kg i.p., test No. I
  Lipid peroxide, liver: 124.84 ± 10.26 nmol/g
  Rate of inhibition, liver: 21.28
[6]; compared with vitamin E
  Power of inhibiting the formation of lipid peroxides: extremely lower power of inhibiting the formation of lipid peroxides than vitamin E
[1]; 1000 mg/kg i.p., test No. I
  Lipid peroxide, heart: 153.61 ± 11.12 nmol/g
  Rate of inhibition, heart: 40.81

## Cc1c(C)c2c(c(C)c1O)CCC(C)(CCCC(C)CCCC(C)CCCC(C)C)O2 (stereo not drawn) [Vitamin E, α-tocopherol]
[7]
  Solubility: insoluble in water and soluble in oil
[8]
  Storage in the body and side effects: stored in the body for a long period of time, and produces side effects
[5]; 250 mg/kg i.p., test No. II
  Lipid peroxide, liver: 76.90 ± 8.15 nmol/g
  Rate of inhibition, liver: 94.79
[5]; 1000 mg/kg i.p., test No. I
  Lipid peroxide, liver: 89.27 ± 26.33 nmol/g
  Rate of inhibition, liver: 75.95
[6]
  Effectiveness for inhibiting the formation of lipid peroxides: effective agent for inhibiting the formation of lipid peroxides
[1]; 250 mg/kg i.p., test No. II
  Lipid peroxide, heart: 86.34 ± 12.61 nmol/g
  Rate of inhibition, heart: 101.98
[1]; 1000 mg/kg i.p., test No. I
  Lipid peroxide, heart: 106.87 ± 36.40 nmol/g
  Rate of inhibition, heart: 82.61

## C[C@@H]1O[C@@H](O[C@H]2[C@H](O[C@H]3[C@H](O[C@H]4CC[C@@]5(C)[C@@H](CC[C@]6(C)[C@@H]5CC=C5[C@@H]7CC(C)(C)C[C@@H](O)[C@]7(C)CC[C@]56C)[C@@]4(C)CO)O[C@H](C(=O)O)[C@@H](O)[C@@H]3O)OC[C@H](O)[C@@H]2O)[C@H](O)[C@H](O)[C@H]1O [Soyasaponin II, 3-O-[α-L-rhamnopyranosyl(1→2)-α-L-arabinopyranosyl(1→2)-β-D-glucuronopyranosyl]-soyasapogenol B]
[4]; 0.1 mg/ml
  Quantity of lipid peroxide: 46.3 nmol/mL
  Rate of inhibition of increase in lipid peroxide: 28.9%
[4]; 1 mg/ml
  Quantity of lipid peroxide: 80.6 nmol/mL
  Rate of inhibition of increase in lipid peroxide: -37.2%
